For experiment [1], the target named is DNA polymerase of hepatitis B virus (HBV) (Hepatitis B virus genotype D subtype ayw, UniProt P03156). Briefly: Inhibition of hepatitis B virus (HBV) DNA polymerase, cell free assay (Test I). In kind it is biochemical. An excerpt: The HBV associated DNA polymerase activity can be measured in vitro (Kaplan et al., J. Virol., 12,995-1005, 1973). A slight modification of this method has been used to test the substance for inhibition of this DNA polymerase activity. (Nordenfelt E., (Oberg, B., Helgstrand E. and Miller E. Acta path., Microbiol. Scand. Sect B, 88:169-175, 1980). With this assay the 3'-deoxy-3'-fluorothymidine-5'-triphosphate has been tested, instead of the prodrug 3'-deoxy- 3'-fluorothymidine, to evaluate its potential against hepatitis B virus DNA polymerase.
3'-deoxy-3'-fluorothymidine-5'-triphosphate was added to the final concentrations of 0.01 μM, 0.05 μM, 0.1 μM, 0.5 μM and 1.0 μM in the reaction mixture. The inhibition is calculated after 3 hours incubation at 37° C. and based on cpm compared to control with added water.

Experiment [2] addresses T1, reverse transcriptase of HIV (HTLV-III/LAV) (Human immunodeficiency virus type 1 group M subtype B, UniProt P04585).
T1 construct: reverse transcriptase of HIV (HTLV-III/LAV) in cell free assay
Briefly: Inhibition of HIV (HTLV-III/LAV) reverse transcriptase, cell free assay (Test II). Type of experiment: biochemical. As to the method:
The assay was performed as described by Vrang et Oberg, Antimicrob. Agents Chemother. 29,867-872 (1986).

Experiment [3] relates to HIV (HTLV-III/LAV) in H9 cells.
Description: MATERIAL AND METHODS; HIV INFECTION OF H9 CELLS
The cells were then pelleted and dispersed in 2.5 ml phosphate buffered saline (PBS) including 2 μg/ml Polybrene. After incubation for 30 min the cells were pelleted and infected with HIV. After an adsorption period of 1 hour the cells were pelleted and washed once with 2.5 ml PBS. […] Samples for reverse transcriptase activity tests were taken as indicated.
1.3 ml samples from the supernatant of each culture were centrifuged at 18 000 rpm in a 55-34 rotor for 1.5 hours and the virus pellet resuspended in 100 μl buffer containing 50 mM Tris-HC1, pH 7.5; 35 mM KC1; 4 mM DTT; 1 mM EDTA; 1.3 % Triton X-100.50 μl samples were taken to the reverse transcriptase activity tests and analyzed in a 100 μl reaction mixture containing 75 mM Tris-HC1, pH 8.0; 60 mM KC1; 6.2 mM MgC12 ; 6 mM DTT; 0.5 mM EDTA; 0.65 % Triton X-100; 100 μg/ml BSA; 25 μCi/ml ^3 H-dTTP (spec activity 80 Ci/mmol); 2.5 μg/ml (dT)12-18 ; and 2.0 μg/ml (rA)n. Incubation was for 1 hour at 37° C. and the TCA-insoluble product precipitated onto Whatman GF/A filter papers, washed and dried, and counted in a liquid scintillation counter.
A further experiment concerns DNA synthesis. Particulars: Journal f. prakt. Chemie, Vol. 315, 895-900 (1973); cited from earlier work.

The values below come from US5446029A, “Anti-retroviral activity of 2',3'-dideoxy-3'-fluoronucleosides” (Medivir AB, priority 1986, dated 1995).

The structures appear in SMILES notation. Read-outs that look alike come from different tables or passages of the source.

Usually inhibition stands for the relative decrease from the control value, in per cent.

Chain of DNA polymerase of hepatitis B virus (HBV) (P03156 whole entry): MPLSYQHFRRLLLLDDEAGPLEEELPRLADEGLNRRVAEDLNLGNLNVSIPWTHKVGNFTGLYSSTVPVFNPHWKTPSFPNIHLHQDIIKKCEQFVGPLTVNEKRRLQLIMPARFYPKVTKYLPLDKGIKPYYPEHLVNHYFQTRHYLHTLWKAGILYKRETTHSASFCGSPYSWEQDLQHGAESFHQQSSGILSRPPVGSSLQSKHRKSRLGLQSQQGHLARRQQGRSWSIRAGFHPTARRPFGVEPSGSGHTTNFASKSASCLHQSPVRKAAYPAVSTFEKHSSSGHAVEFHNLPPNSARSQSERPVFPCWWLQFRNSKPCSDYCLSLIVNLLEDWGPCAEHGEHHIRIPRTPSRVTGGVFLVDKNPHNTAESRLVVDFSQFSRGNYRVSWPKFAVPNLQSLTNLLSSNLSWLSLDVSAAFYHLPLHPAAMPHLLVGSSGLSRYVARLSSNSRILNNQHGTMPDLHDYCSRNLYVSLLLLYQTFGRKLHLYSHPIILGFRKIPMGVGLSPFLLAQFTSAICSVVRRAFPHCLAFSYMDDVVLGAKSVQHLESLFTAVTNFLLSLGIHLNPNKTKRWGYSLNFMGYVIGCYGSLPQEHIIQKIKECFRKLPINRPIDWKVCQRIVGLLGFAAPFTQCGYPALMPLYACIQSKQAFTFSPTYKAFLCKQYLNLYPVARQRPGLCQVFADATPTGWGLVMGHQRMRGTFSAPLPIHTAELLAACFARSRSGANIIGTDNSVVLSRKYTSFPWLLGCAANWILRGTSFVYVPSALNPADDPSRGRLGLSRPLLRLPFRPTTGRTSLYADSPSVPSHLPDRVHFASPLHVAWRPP

`Cc1cn([C@H]2C[C@H](F)[C@@H](CO)O2)c(=O)[nH]c1=O`: in experiment [1] (from Table I, tested as 5'-triphosphate, 3 hours at 37° C.), the “apparent ID50-value” came out at 160 nM. In experiment [2] (by extrapolation from Table II, tested as 5'-triphosphate), the “ID50-value with regard to the activity of HIV reverse transcriptase” value was 200 nM. For the same compound, the Reverse transcriptase activity in experiment [3] (0.01 μM, day 4 post-infection, untreated 0.9) came out at 0.5 cpm × 10^-3; in experiment [3] (0.01 μM, day 8 post-infection, untreated 19) it was 1.3 cpm × 10^-3; in experiment [3] (0.01 μM, day 11 post-infection, untreated 17), 1.9 cpm × 10^-3; in experiment [3] (0.01 μM, day 15 post-infection, untreated 11), 2.7 cpm × 10^-3; in experiment [3] (0.01 μM, day 18 post-infection, untreated 27) it was 28 cpm × 10^-3; in experiment [3] (0.01 μM, day 22 post-infection, untreated 46) it was 52 cpm × 10^-3. In addition, the Reverse transcriptase activity in experiment [3] (0.01 μM, day 29 post-infection, untreated 16) came to 21 cpm × 10^-3; in experiment [3] (0.05 μM, day 4 post-infection, untreated 0.9), 0.3 cpm × 10^-3; in experiment [3] (0.05 μM, day 8 post-infection, untreated 19) it was 0.3 cpm × 10^-3; in experiment [3] (0.05 μM, day 11 post-infection, untreated 17) it was 0.4 cpm × 10^-3; in experiment [3] (0.05 μM, day 15 post-infection, untreated 11) it was 0.6 cpm × 10^-3; in experiment [3] (0.05 μM, day 18 post-infection, untreated 27), 0.5 cpm × 10^-3. In addition, the Reverse transcriptase activity was 1.6 cpm × 10^-3 in experiment [3] (0.05 μM, day 22 post-infection, untreated 46); 3.1 cpm × 10^-3 in experiment [3] (0.05 μM, day 29 post-infection, untreated 16); 0.2 cpm × 10^-3 in experiment [3] (0.1 μM, day 4 post-infection, untreated 0.9); 0.2 cpm × 10^-3 in experiment [3] (0.1 μM, day 8 post-infection, untreated 19); 0.5 cpm × 10^-3 in experiment [3] (0.1 μM, day 11 post-infection, untreated 17); 0.4 cpm × 10^-3 in experiment [3] (0.1 μM, day 15 post-infection, untreated 11). The Reverse transcriptase activity was determined as 0.4 cpm × 10^-3 in experiment [3] (0.1 μM, day 18 post-infection, untreated 27); 0.2 cpm × 10^-3 in experiment [3] (0.1 μM, day 22 post-infection, untreated 46); 0.2 cpm × 10^-3 in experiment [3] (0.1 μM, day 29 post-infection, untreated 16); 0.3 cpm × 10^-3 in experiment [3] (0.5 μM, day 4 post-infection, untreated 0.9); 0.3 cpm × 10^-3 in experiment [3] (0.5 μM, day 8 post-infection, untreated 19); 0.5 cpm × 10^-3 in experiment [3] (0.5 μM, day 11 post-infection, untreated 17). For the same compound, the Reverse transcriptase activity is recorded as 0.3 cpm × 10^-3 in experiment [3] (0.5 μM, day 15 post-infection, untreated 11); 0.6 cpm × 10^-3 in experiment [3] (0.5 μM, day 18 post-infection, untreated 27); 0.1 cpm × 10^-3 in experiment [3] (0.5 μM, day 22 post-infection, untreated 46); 0.2 cpm × 10^-3 in experiment [3] (0.5 μM, day 29 post-infection, untreated 16); 0.3 cpm × 10^-3 in experiment [3] (1.0 μM, day 4 post-infection, untreated 0.9); 0.2 cpm × 10^-3 in experiment [3] (1.0 μM, day 8 post-infection, untreated 19). Also, the Reverse transcriptase activity in experiment [3] (1.0 μM, day 11 post-infection, untreated 17) was 0.5 cpm × 10^-3; in experiment [3] (1.0 μM, day 15 post-infection, untreated 11) it was 0.4 cpm × 10^-3; in experiment [3] (1.0 μM, day 18 post-infection, untreated 27), 0.5 cpm × 10^-3; in experiment [3] (1.0 μM, day 22 post-infection, untreated 46) it was 0.1 cpm × 10^-3; in experiment [3] (1.0 μM, day 29 post-infection, untreated 16), 0.2 cpm × 10^-3. Further, the “effect on reverse transcriptase activity of HIV (in words)” value was “enzyme activity was not detected” in experiment [3] (0.01 μM, up to 11 days); “no significant enzyme activity was detected” in experiment [3] (0.05 μM, up to 22 days); “completely prevents the enzyme activity” in experiment [3] (0.1 μM and higher concentrations, during at least 29 days). For the same compound, the “cytostatic and virustatic activity” value in the experiment with DNA synthesis was “cytostatic and virustatic activity as selective inhibitor of DNA synthesis”.

As to `Cc1cn([C@H]2C[C@H](F)[C@@H](COP(=O)(O)OP(=O)(O)OP(=O)(O)O)O2)c(=O)[nH]c1=O` [3'-deoxy-3'-fluorothymidine-5'-triphosphate], in experiment [1] (read-out: % inhibition of HBV DNA polymerase activity), the inhibition at 1 µM turned out to be 88%. Further, in experiment [2] (0.01 μM), the inhibition at 0.01 µM amounted to 12%. This compound had an inhibition at 0.05 µM in experiment [2] (0.05 μM) of 27%. The compound further gave an inhibition at 0.1 µM in experiment [2] (0.1 μM) of 38%.
